{
  "source": "paper PMC7987348",
  "about": "“Structural basis for human TRPC5 channel inhibition by two distinct inhibitors” (eLife, 2021)",
  "key": {"hTRPC5": {"molecular_target": "T1, hTRPC5 (Homo sapiens, UniProt Q9UL62)", "T1 sequence (Q9UL62 1-973)": "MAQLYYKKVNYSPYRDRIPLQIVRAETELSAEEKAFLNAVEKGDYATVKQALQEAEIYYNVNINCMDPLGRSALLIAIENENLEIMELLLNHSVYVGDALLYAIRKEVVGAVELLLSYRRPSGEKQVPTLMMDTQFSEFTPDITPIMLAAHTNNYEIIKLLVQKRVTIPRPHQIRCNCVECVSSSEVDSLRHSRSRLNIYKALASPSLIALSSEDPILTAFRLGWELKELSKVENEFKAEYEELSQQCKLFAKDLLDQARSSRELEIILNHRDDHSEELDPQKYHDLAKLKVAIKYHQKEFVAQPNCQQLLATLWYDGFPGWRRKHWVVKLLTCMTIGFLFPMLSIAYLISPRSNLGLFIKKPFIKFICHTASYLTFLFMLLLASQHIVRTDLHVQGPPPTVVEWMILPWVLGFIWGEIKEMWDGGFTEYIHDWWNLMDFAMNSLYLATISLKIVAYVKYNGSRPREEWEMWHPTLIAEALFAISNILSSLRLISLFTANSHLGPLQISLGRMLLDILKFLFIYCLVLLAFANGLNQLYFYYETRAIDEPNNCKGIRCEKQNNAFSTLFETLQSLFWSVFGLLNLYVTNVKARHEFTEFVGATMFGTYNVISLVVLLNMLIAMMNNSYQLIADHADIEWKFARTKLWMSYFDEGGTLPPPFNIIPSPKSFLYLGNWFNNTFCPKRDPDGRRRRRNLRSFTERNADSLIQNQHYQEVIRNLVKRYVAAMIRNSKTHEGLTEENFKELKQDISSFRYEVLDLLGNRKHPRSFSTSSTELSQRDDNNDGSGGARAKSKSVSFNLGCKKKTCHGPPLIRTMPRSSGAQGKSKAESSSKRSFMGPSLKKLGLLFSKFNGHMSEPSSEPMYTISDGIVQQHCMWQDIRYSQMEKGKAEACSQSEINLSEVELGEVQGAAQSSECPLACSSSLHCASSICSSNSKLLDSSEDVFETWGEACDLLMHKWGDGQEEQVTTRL", "assay": "Whole cell recording of EA-elicited hTRPC5 currents in low calcium condition", "conditions": "50 μM CMZ; 200 nM EA; 1 mM EGTA and 1 mM EDTA to chelate intracellular Ca2+; −60 mV"}, "hTRPC5 S495A": {"molecular_target": "T2, hTRPC5 S495A (Homo sapiens, UniProt Q9UL62, S495A)", "T2 construct": "We use full-length nontagged hTRPC5 construct for FLIPR assay unless indicated otherwise; expressed in transfected cells; host or cells: AD293", "T2 sequence (Q9UL62 1-973 S495A)": "T1 sequence (Q9UL62 1-973) with S495A", "assay": "FLIPR calcium assay, hTRPC5 mutant S495A", "type": "cell-based", "description": "[…]. Then the suspended cell culture was further diluted for 5.4- to 7-fold with culture medium and seeded onto black well, clear bottom, poly-D-lysine-coated 96-well plate (Costar) and cultured overnight. We use full-length nontagged hTRPC5 construct for FLIPR assay unless indicated otherwise. hTRPC5 plasmids were transfected into AD293 cells (60-80% confluence) with PEI. 30–40 hr post-transfection, culture medium was discarded and cells were incubated with 50 μl per well of 4 μM Rhod-2/AM (AAT Bioquest) in TARODES’s buffer (10 mM HEPES, 150 mM NaCl, 4 mM KCl, 2 mM MgCl2, 2 mM CaCl2, 11 mM glucose, pH 7.4) supplemented with 0.02% Pluronic F-127 (Sigma) for 5 min in dark at room temperature. Then dye was removed and replaced with 50 μl of TARODE’s buffer per well. The application of compounds and detection of intracellular calcium elevation were performed using FLIPR-TETRA (Molecular Devices) at room temperature (25–27°C). Fluorescence signals were read with excitation/emission at 510–545/565–625 nm.\n[…]. Then fluorescence was measured for 300 s.\nBuffer A contains 2× concentration of working concentration of inhibitor. […]. for control-Min, both buffer A and buffer B were replaced by TARODE’s buffer.\n[…]; the average of fluorescence value of last 20 time points was considered as the ‘end fluorescence’. The value of ‘end fluorescence’ minus ‘start fluorescence’ was considered as ‘signal value’ for each well. […].\nThree independent experiments were performed on different days (biological replicates), with each experiment containing three replicates (technique replicates)."}, "TRPC7": {"system": "TRPC7", "design": "method as in Richter et al., 2014", "conditions": "ref Richter et al., 2014; cited from earlier work"}},
  "note": "Changes are numbered by the printed parent chain. pIC50: −log10 of the molar value. Read-outs that look alike come from different tables or passages of the source.",
  "data": [
    {"smiles": "Clc1ccc(Cn2c(CN3CCCC3)nc3ccccc32)cc1", "note": "[CMZ, clemizole]", "values": [
      {"measurement": "inhibition of EA-elicited currents", "setting": "hTRPC5", "value": "could inhibit EA-elicited currents"},
      {"measurement": "Hill slope", "setting": "hTRPC5 S495A; CMZ", "value": "−1.21"},
      {"measurement": "pIC50", "setting": "hTRPC5 S495A; CMZ, 14 mM extracellular calcium, read-out: IC50", "value": 5.52},
      {"measurement": "IC50", "setting": "hTRPC5 S495A; CMZ, log of IC50 in μM, logIC50 ± SEM, n = 3, read-out: LogIC50 (converted)", "value": 3.02, "unit": "µM"},
      {"measurement": "remaining activity at 0.200195 µM", "setting": "hTRPC5 S495A; read-out: normalized RFU (% WT), Clemizole 0.200195 μM, 14 mM Ca2+, each column one independent experiment", "value": 83, "unit": "%"},
      {"measurement": "remaining activity at 0.400391 µM", "setting": "hTRPC5 S495A; read-out: normalized RFU (% WT), Clemizole 0.400391 μM, 14 mM Ca2+, each column one independent experiment", "value": 78.4, "unit": "%"},
      {"measurement": "remaining activity at 0.800781 µM", "setting": "hTRPC5 S495A; read-out: normalized RFU (% WT), Clemizole 0.800781 μM, 14 mM Ca2+, each column one independent experiment", "value": 82, "unit": "%"},
      {"measurement": "remaining activity at 1.60156 µM", "setting": "hTRPC5 S495A; read-out: normalized RFU (% WT), Clemizole 1.60156 μM, 14 mM Ca2+, each column one independent experiment", "value": 79.3, "unit": "%"},
      {"measurement": "remaining activity at 3.20312 µM", "setting": "hTRPC5 S495A; read-out: normalized RFU (% WT), Clemizole 3.20312 μM, 14 mM Ca2+, each column one independent experiment", "value": 50.6, "unit": "%"},
      {"measurement": "remaining activity at 6.40625 µM", "setting": "hTRPC5 S495A; read-out: normalized RFU (% WT), Clemizole 6.40625 μM, 14 mM Ca2+, each column one independent experiment", "value": 46.5, "unit": "%"},
      {"measurement": "remaining activity at 12.8125 µM", "setting": "hTRPC5 S495A; read-out: normalized RFU (% WT), Clemizole 12.8125 μM, 14 mM Ca2+, each column one independent experiment", "value": 40.3, "unit": "%"},
      {"measurement": "fold more potent against TRPC5 than TRPC7", "setting": "TRPC7", "value": 26, "unit": "fold"}
    ]}
  ]
}
